What was measured:
HTT protein = HTT protein electrochemiluminescence (ECL) assay in HD patient fibroblasts, 96 h; type: cell-based, human; details: fibroblasts derived from HD patients, 96 h
Description: Human fibroblasts derived from a homozygous patient with HD (GM4857) were cultured for 96 hours in the presence of test compounds (in 0.5% DMSO) or controls at 37° C. in a humidified 5% CO2 atmosphere. After 96 hours, cells were lysed and frozen. HTT protein levels were measured in lysates as described below. Compounds that decreased HTT protein levels relative to DMSO control were further tested in a dose response assay.
For analysis in the electrochemiluminescence (ECL) assays, test compounds were serially diluted 3-fold in 100% DMSO (Sigma) to generate a 7-point concentration curve. A solution of test compound (500 nL, 200× in DMSO) was added to each test well with Acoustic Transfer System (EDC Biosystems); final concentration of DMSO was 0.5%. Fibroblasts were seeded in 96-well flat-bottomed plates (Thermo Fisher) at 4×10^3 cells/well in 100 μl of culture medium containing the test compound or DMSO vehicle control and incubated for 96 hours (37° C., 5% CO2, 100% relative humidity). After removal of the supernatant, cells were lysed in 50 μL of 1×LB11 extraction buffer (50 mM Tris (pH 7.4), 300 mM NaCl, 10% [w/v] glycerol, 3 mM EDTA, 1 mM MgCl2, 20 mM glycerophosphate, 25 mM NaF, 1% Triton X-100), containing a Complete™ protease inhibitor cocktail (Roche Diagnostics) with shaking at 4° C. for 30 minutes; the plates were then stored at −20° C.
Meso Scale Discovery® 96-well plates (MSD®) were coated overnight at 4° C. with primary antibodies in phosphate-buffered saline (PBS; 30 μl/well). The plates were washed three times with 0.05% Tween-20 in 1×PBS (PBS-T; 200 μl/well) then blocked (100 μl/well; 5% bovine serum albumin [BSA] in PBS-T) for 5-6 hours at room temperature (RT) with shaking. Plates were then washed three times with PBS-T. Cell lysates were transferred to the antibody coated plates (25 μl/well) and incubated with shaking overnight at 4° C. After removal of the lysates, the plates were washed three times with PBS-T, and 25 μl of detection antibody in 1% BSA, PBS-T was added to each well and incubated with shaking for 1 hour at room temperature. After three washes with PBS-T, 25 μl of Sulfo-Tag secondary antibody (MSD®; 0.25 μg/ml in 1% BSA, PBS-T) was added to each well and incubated with shaking for 1 hour at RT. After washing three times with PBS-T, 150 μl of read buffer T with surfactant (MSD®) was added to each empty well and the plate was imaged on the SI 6000 imager (MSD®) according to manufacturers' instructions for 96-well plates. Primary capture antibodies included: anti-polyglutamine-expanded HTT mouse monoclonal antibody (mAb) clone MW1 (1 μg/mL; Developmental Studies Hybridoma Bank); anti-HTT MAB2166 mAb (1 μg/mL; Millipore); anti-human KRAS rabbit polyclonal antibody (1 μg/mL; Thermo Fisher Scientific). Detection antibodies included: Huntingtin (D7F7) XP® Rabbit mAb (0.25 μg/ml; Cell Signalling Technology®); anti-hKRAS mouse mAb (0.25 μg/ml; LSBIO).

MDR1 = target: T1, MDR1 (Homo sapiens, UniProt P08183); assay: MDCK-MDR1 efflux assay; type: in vitro ADME; details: 10 μM, MDCK-MDR1 and MDCK-WT monolayers, 1 hour
T1 construct: host or cells: MDCK (Madin-Darby Canine Kidney) cells expressing MDR1
Description: The MDR1 efflux assay was conducted at Absorption System LLC (Exton, Pa.). Briefly, MDCK-MDR1 and MDCK-WT cell monolayers were grown to confluence on collagen-coated, microporous membranes in 12-well assay plates (Thermofisher). Compound solutions (10 μM) in permeability assay buffer (Hanks' balanced salt solution (HBSS), 10 mM HEPES, 15 mM glucose; pH of 7.4) were placed in the donor chamber. The receiver chamber was filled with assay buffer plus 1% BSA. Cell monolayers were dosed on the apical side (A-to-B) or basolateral side (B-to-A) and incubated at 37° C. (5% CO2, 100% relative humidity). Sampling from the donor chambers was performed at 0 and 1 hour; and from the receiver chambers at 1 hour. Each determination was performed in duplicate. The flux of lucifer yellow was also measured post-experimentally for each monolayer to ensure no damage was inflicted to the cell monolayers during the flux period. All samples were assayed by LC-MS/MS using electrospray ionisation. The apparent permeability (Papp) and percent recovery was determined using the following equation: […]
dCr/dt represents the slope of the cumulative receiver concentration versus time in μM/s; Vr is the volume of the receiver compartment (cm3); Vd is the volume of the donor compartment in (cm3); A is the area of the insert (1.13 cm2 for 12-well); C0 is the average measured concentration of the donor chamber at time zero in μM; Net Efflux ratio (ER) is defined as […].

[1] = Unbound brain partition coefficient (Kp,uu) from mouse PK studies; type: in vivo; details: FVB (WT littermates of the BACHD colony), brain and plasma (unbound), oral, 10 mg/kg, average over animals of multiple mouse PK studies
Description: Oral pharmacokinetics (PK) of compounds was evaluated in WT littermates from the BACHD colony (FVB background). Mice were treated with test compounds (10 mg/kg) by oral gavage in 0.5% hydroxypropylmethyl cellulose (HPMC) with 0.1% Tween 80. Blood was collected by terminal cardiac puncture at specified time points (3 mice per time point) and centrifuged to generate plasma. Brain tissue was collected at the time of blood collection and homogenized in water. Protein was precipitated from plasma and brain homogenates with acetonitrile, methanol mixture (5:1, v:v) containing an internal standard that is a close analog of the test compounds. The mixture was filtered through an EMD Millipore MultiScreen™ Solvinert Filter Plate (MSRLN04, Millipore, Burlington, Mass.). Calibration standards were prepared in the same matrix and processed with the testing samples. Filtrates were analysed using Acquity ultra performance liquid chromatography (UPLC) system (Waters Corporation) tandem with Xevo TQ-s Spectrometer (Waters Corporation). Samples were injected on to a Waters UPLC Acquity BEH C18 Column (2.1*50 mm, 1.7 μm) maintained at 50° C. The injection volume was 3 μL and the mobile phase flow rate was 0.45 mL/min. The mobile phase consisted of 2 solvents: A) 0.1% formic acid in water and B) 0.1% formic acid in acetonitrile. The initial mobile phase started with 5% solvent B for 0.4 min, which was changed to […] over 0.8 min with linear gradients and then maintained at 95% solvent B for another 0.4 min. The drug concentrations were acquired and processed with MassLynx 4.1 software. PK parameters were estimated using the non-compartment method within Phoenix® WinNonlin® Build 8.1 (Certara USA, Inc., Princeton, N.J.).
The unbound brain partition coefficient (Kp,uu) is defined as the ratio between unbound brain free drug concentration and unbound plasma concentration. It was calculated using the following equation:
Kp,uu=Cbrain×fu,b/(Cplasma*fu,p)
Cbrain and Cplasma represent the compound concentrations in brain and plasma, respectively. fu,b and fu,p are the unbound fraction of each testing article in brain and plasma, respectively. Both fu,b and fu,p were determined in vitro using Pierce Rapid Equilibrium Dialysis (RED) device at Absorption System LLC (Exton, Pa.). Kp,uu was calculated individually for each animal from multiple mouse PK studies and the average values are reported here.

HTT pre-mRNA = assay: Ampliseq/RNAseq analysis of intron 49 pseudoexon inclusion and HTT expression in different cell types; type: cell-based, human

T1 sequence (P08183 whole entry): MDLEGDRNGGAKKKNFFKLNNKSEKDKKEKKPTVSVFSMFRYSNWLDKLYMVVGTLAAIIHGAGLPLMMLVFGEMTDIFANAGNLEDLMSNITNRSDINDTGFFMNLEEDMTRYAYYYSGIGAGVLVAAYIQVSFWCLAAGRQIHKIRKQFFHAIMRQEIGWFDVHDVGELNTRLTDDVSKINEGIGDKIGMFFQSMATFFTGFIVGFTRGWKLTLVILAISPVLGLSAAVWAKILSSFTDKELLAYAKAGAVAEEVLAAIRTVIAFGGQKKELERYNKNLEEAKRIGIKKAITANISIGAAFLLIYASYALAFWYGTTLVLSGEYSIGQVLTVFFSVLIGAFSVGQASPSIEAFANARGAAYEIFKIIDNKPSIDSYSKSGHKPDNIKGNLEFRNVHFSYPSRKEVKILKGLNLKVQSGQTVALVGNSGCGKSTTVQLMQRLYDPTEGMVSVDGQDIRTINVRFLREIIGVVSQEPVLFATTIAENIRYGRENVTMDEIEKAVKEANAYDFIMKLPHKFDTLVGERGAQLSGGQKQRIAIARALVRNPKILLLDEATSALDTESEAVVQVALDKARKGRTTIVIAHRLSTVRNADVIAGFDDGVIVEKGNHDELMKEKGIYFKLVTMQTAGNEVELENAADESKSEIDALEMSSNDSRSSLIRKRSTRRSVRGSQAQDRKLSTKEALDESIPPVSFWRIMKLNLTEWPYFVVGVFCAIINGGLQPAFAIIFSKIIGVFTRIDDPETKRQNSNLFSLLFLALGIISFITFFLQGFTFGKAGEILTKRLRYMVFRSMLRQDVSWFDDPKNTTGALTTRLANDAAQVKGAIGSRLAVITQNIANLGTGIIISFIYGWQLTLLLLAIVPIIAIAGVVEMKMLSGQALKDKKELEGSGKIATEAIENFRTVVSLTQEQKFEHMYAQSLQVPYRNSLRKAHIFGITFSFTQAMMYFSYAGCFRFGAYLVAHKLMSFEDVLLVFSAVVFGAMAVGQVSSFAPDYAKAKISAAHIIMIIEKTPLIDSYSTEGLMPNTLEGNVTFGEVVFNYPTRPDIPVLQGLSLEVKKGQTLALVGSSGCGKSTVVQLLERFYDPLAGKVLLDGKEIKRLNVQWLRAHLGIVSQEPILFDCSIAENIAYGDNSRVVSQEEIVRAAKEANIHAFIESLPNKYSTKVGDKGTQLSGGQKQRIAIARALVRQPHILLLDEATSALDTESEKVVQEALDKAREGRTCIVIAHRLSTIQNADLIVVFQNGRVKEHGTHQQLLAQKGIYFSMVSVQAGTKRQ

For `CC(C)c1cc(-c2n[nH]cc2-c2ccc3c(c2)OCO3)c(O)cc1O` [HTT-A], the HTT protein level (HTT protein) was “lower HTT protein levels”.

For `Cn1c(/C=C/c2ccc(Cl)cc2)c([N+](=O)[O-])c(=O)n(C)c1=O` [HTT-B], the HTT protein level (HTT protein) was “lower HTT protein levels”.

With `CC1(C)CC(n2nnc3cc(-c4ccc(-n5nccn5)cc4O)nnc32)CC(C)(C)N1` [HTT-C3] the “NET MDR1 ER” value (MDR1) was 2.0, the Kp uu [1] was 0.848 and the “HTT gene expression quantified using RNAseq (FPKM)” value (HTT pre-mRNA; 100 nM, SHSY5Y cells (HTT-C2), TK6 cells (HTT-C3)) was “reduced HTT gene expression”. The “inclusion of intron 49 pseudoexon” value (HTT pre-mRNA; HD fibroblasts, SH-SY5Y, TK6, MRC-5 cells) was “induced the inclusion of an Intron 49 pseudoexon”.

From US20220162610A1, “NOVEL RNA TRANSCRIPT” (PTC Therapeutics, Inc., priority 2020, published 2022)
